Data on 5 compounds can be found in patent US5856480A, “Optically active compound” (Nippon Soda Co., Ltd., priority 1994, dated 1999).

The subject of data set [1] is platelet aggregation induced by adenosine diphosphate (ADP). Put plainly: Inhibitory effect on platelet aggregation induced by ADP, in vitro, PRP. Type of data set: cell-based, rabbits. The following applies: Oryctolagus cuniculus, 10 μM ADP, rabbit PRP, 3 min pre-incubation, measured 5 min, read-out: Inhibition of Platelet Aggregation (IC50), ADP. On the procedure:
(§1) In vitro inhibitory activity of the compound of the present invention was evaluated on platelet aggregation each induced by adenosine diphosphate (ADP), collagen, arachidonic acid, U-46619 and thrombin, respectively, by using an aggregation meter (type: hematracer PAT-606, manufactured by Niko bioscience Co., Ltd). 0.38% citric acid-containing blood collected from rabbits was centrifuged at 1,200 rpm for 15 min. to thereby obtain platelet rich plasma (hereinafter referred to as PRP). The PRP obtained was further centrifuged at 3,500 rpm for 10 min., and the supernatant was used as platelet poor plasma (hereinafter referred to as PPP). The platelets in the PRP were prepared by dilution with PPP to a concentration of 2 to 5×10^8 cells/ml, and 10 μM of ADP, 20 μg/ml of collagen, 200 μg/ml of arachidonic acid, 10 μM of U-46619 and 0.5 U/ml of thrombin are used for the induction of platelet aggregation, respectively, where all of those concentrations are expressed in the final concentration. The test compound was dissolved in dimethyl sulfoxide (DMSO), and to 0.2 μl of the solution thus obtained, was added 0.2 ml of the sample of PRP prepared as described above, then the solution was placed for pre-incubation for 3 min. Then, each 22 μl of the said aggregation-inducing agents, ADP, collagen, U-46619 and thrombin, and 2.2 μl of arachidonic acid, were added thereto, respectively, then platelet aggregation was measured for 5 min., except for collagen, for which the measurement was conducted for 10 min. The inhibitory effect on platelet aggregation was expressed as inhibition rate (%) respective to the maximum aggregation rate obtained in the control plot. [formula]
(§2) A dose-response curve was prepared, and from which IC50, a dose attainable 50% inhibition of platelet aggregation, was determined.

Data set [2] deals with platelet aggregation induced by U-46619. The experiment in a line: Inhibitory effect on platelet aggregation induced by U-46619, in vitro, PRP. It is filed as cell-based, rabbits. Conditions: Oryctolagus cuniculus, 10 μM U-46619, rabbit PRP, 3 min pre-incubation, measured 5 min, read-out: Inhibition of Platelet Aggregation (IC50), U-46619. On the procedure:
as §1, §2

Data set [3] concerns platelet aggregation induced by thrombin. The experiment in a line: Inhibitory effect on platelet aggregation induced by thrombin, in vitro, PRP. Type of data set: cell-based, rabbits. Conditions: Oryctolagus cuniculus, 0.5 U/ml thrombin, rabbit PRP, 3 min pre-incubation, measured 5 min, read-out: Inhibition of Platelet Aggregation (IC50), Thrombin. On the procedure: as §1, §2

In data set [4] the test system is platelet aggregation induced by arachidonic acid. Put plainly: Inhibitory effect on platelet aggregation induced by arachidonic acid, in vitro, PRP. Type of data set: cell-based, rabbits. The following applies: Oryctolagus cuniculus, 200 μg/ml arachidonic acid, rabbit PRP, 3 min pre-incubation, measured 5 min, read-out: Inhibition of Platelet Aggregation (IC50), Arachidonic Acid. On the procedure: as §1, §2

In data set [5] the test system is platelet aggregation induced by collagen. Put plainly: Inhibitory effect on platelet aggregation induced by collagen, in vitro, PRP. Conditions: Oryctolagus cuniculus, 20 μg/ml collagen, rabbit PRP, 3 min pre-incubation, measured 10 min, read-out: Inhibition of Platelet Aggregation (IC50), Collagen. It is filed as cell-based, rabbits. On the procedure: as §1, §2

Data set [6] in a line: Residue of Solvent (water by Karl Fischer, ethanol by GC). Type of data set: physicochemical. The following applies: for Water Content (%): Karl Fischer moisture meter; for removal of remaining solvent by drying (in words): as demonstrated in Table 4; for Ethanol Content (%): gas chromatography, sample in DMSO. On the procedure:
By using the same noncrystalline powder and the crystalline form as the ones used in the Test Example 2, the amount of remaining solvent was analyzed.
Each 50 mg of the noncrystalline powder and the crystalline form were weighed precisely, on which water content was determined by using a Karl Fischer moisture meter, respectively. Whereas, each 50 mg of the noncrystalline powder and the crystalline form were weighed and dissolved in dimethyl sulfoxide (DMSO), respectively, and those solution were adjusted to a volume of 50 ml, respectively. A 2 μl portion out of the 50 ml solution was used for determining the ethanol content in the test sample by using gas chromatography (GC), respectively.
N2 : 25 ml/min, Air: 0.6 kg/cm^2, H2 : 0.6 kg/cm^2
Temperature : 180° C. at Column; 220° C. at Injection site, 220° C. at Detection site.

A short description of data set [7]: Test on Stability (remaining rate by HPLC after storage at 80° C.). It is filed as physicochemical. Conditions: for Remaining Rate (%), 0 day: 80° C.; for Remaining Rate (%), 0 day / Remaining Rate (%), After 4 days: sealed vial, HPLC; for Remaining Rate (%), After 4 days: after 4 days at 80° C., 5760 min. On the procedure: To 30 ml of ethanol, was dissolved 2 g of (R)-(-)-4,5-dihydro-5-methyl-6-[4-[(2-propyl-3-oxo-1-cyclohexenyl) amino]phenyl]-3(2H)-pyridazinone under heating, and the solution was place for cooling under room temperature. After condensing the solvent of the solution under reduced pressure, the solution was then dried under reduced pressure by using a vacuum pump, thereby affording 1.5 g of the noncrystalline powder of said compound of which melting point being of from 102° to 106° C.
Each 10 mg of the noncrystalline powder obtained as described above and the crystalline form obtained in the Example 2 were weighed precisely, placed in a 20 ml volume vial then sealed, respectively, and preserved for 4 days at 80° C. Then, the vials were cooled to room temperature, and subsequently the determination of the remaining rate (%) of the test compounds were conducted by using high performance liquid chromatography (HPLC).
Column: TSK-gel 80 TM 4.6 mm I.D×250 mm (Manufactured by Tosoh Corporation)
Mobile phase: Mixture of acetonitrile and distillated water (Combining rate, 60/40)
Flow Speed: 1.0 ml/min., Temperature: 40° C., Wavelength for Detection: 254 nm

Data set [8] concerns platelet aggregation. Put plainly: Inhibitory effect on platelet aggregation, overall statement. It is filed as cell-based, rabbits. The following applies: same procedure as Test Example 1; crystalline compound of Example 2. On the procedure: as §1, with “The platelets in the PRP were prepared by dilution with PPP to a concentration of 2 to 5×10^8 cells/ml, and 10 μM of ADP, 20 μg/ml of collagen, 200 μg/ml of arachidonic acid, 10 μM of U-46619 and 0.5 U/ml of thrombin are used for the induction of platelet aggregation, respectively, where all of those concentrations are expressed in the final concentration. The test compound was dissolved in dimethyl sulfoxide (DMSO), and to 0.2 μl of the solution thus obtained, was added 0.2 ml of the sample of PRP prepared as described above, then the solution was placed for pre-incubation for 3 min.” left out, “[formula]” left out

Broadly, the IC50 is the point on the concentration scale where inhibition reaches its midpoint. With `CCCC1=C(Nc2ccc(C3=NNC(=O)C[C@H]3C)cc2)CCCC1=O` (single isomer, unassigned) [(R)-(-)-(I)], the IC50 was 2.9 µM in data set [1]; 0.38 µM in data set [2]; 1.5 µM in data set [3]; 0.82 µM in data set [4]; 2.5 µM in data set [5].

`CCCC1=C(Nc2ccc(C3=NNC(=O)C[C@H]3C)cc2)CCCC1=O` [Noncrystalline powder, (R)-(-)-4,5-dihydro-5-methyl-6-[4-[(2-propyl-3-oxo-1-cyclohexenyl)amino]phenyl]-3(2H)-pyridazinone]: in data set [6], the “Water Content (%)” value stood at 1.3%, the “removal of remaining solvent by drying (in words)” value is on record as “difficult to completely remove the remaining solvent” and the “Ethanol Content (%)” value was 4.3%. For the same compound, in data set [7], the “Remaining Rate (%), 0 day” value is on record as 100% and the “Remaining Rate (%), After 4 days” value was determined as 58%.

Regarding `CCCC1=C(Nc2ccc(C3=NNC(=O)CC3C)cc2)CCCC1=O` (racemic) [(±)-(I), 4,5-dihydro-5-methyl-6-[4-[(2-propyl-3-oxo-1-cyclohexenyl)amino]phenyl]-3(2H)-pyridazinone], the IC50 was found to be 4.5 µM in data set [1]; 1.5 µM in data set [2]; 3 µM in data set [3]; 1.7 µM in data set [4]; 3.5 µM in data set [5].

Regarding `CCCC1=C(Nc2ccc(C3=NNC(=O)C[C@@H]3C)cc2)CCCC1=O` [(S)-(-)-(I)], the IC50 in data set [1] was 780 µM; in data set [2] it was > 100 µM; in data set [3], 560 µM; in data set [4] it was 290 µM; in data set [5], 1010 µM.

`CCCC1=C(Nc2ccc(C3=NNC(=O)C[C@H]3C)cc2)CCCC1=O` [Crystalline form, (R)-(-)-4,5-dihydro-5-methyl-6-[4-[(2-propyl-3-oxo-1-cyclohexenyl)amino]phenyl]-3(2H)-pyridazinone]: in data set [8], the “inhibitory effect on platelet aggregation (in words)” value is on record as “excellent inhibitory effect on platelet aggregation similar to the effect of the noncrystalline compound, (R)-(-)-(I)”. In addition, in data set [6], the “Water Content (%)” value was determined as 0.2%, the “removal of remaining solvent by drying (in words)” value is given as “easy to dry” and the “Ethanol Content (%)” value is listed as 0.2%. In data set [7], the “Remaining Rate (%), 0 day” value stood at 100% and the “Remaining Rate (%), After 4 days” value was 96%. In data set [7] (4 days at 80° C., crystalline form versus noncrystalline powder), the “stability (in words)” value was “superior than that of the noncrystalline powder”.
